From patent US11780840B2 (Incyte Corporation, priority 2020, dated 2023)

What was measured:
[1] = target: T1, catalytic domain (JH1, amino acids 826-1132) of human JAK2 (Homo sapiens, UniProt O60674); experiment: JAK2 LanthaScreen JH1 Binding Assay; settings: JAK2 JH1 (1.5 nM), 50 nM fluorescent JAK2-JH1 tracer, 2 hours at 25° C.; read-out: JH1 BIND
T1 construct: catalytic domain (JH1, amino acids 826-1132) of human JAK2; FLAG (N); purchased Carna Biosciences 08-445-20N; host or cells: baculovirus expression system
T1 sequence (O60674 826-1132): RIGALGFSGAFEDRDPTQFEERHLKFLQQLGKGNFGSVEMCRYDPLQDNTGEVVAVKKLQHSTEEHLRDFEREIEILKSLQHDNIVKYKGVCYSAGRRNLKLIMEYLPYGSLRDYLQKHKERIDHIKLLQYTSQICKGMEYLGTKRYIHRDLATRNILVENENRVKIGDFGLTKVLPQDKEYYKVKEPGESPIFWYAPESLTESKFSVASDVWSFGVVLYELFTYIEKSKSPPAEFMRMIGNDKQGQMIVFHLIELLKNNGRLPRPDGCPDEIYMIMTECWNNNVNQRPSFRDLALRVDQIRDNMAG
Procedure, shortened: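 TR-FRET tracer-displacement format: compound IC50 from four-parameter curves after 2 h at 25° C. Reaction held 1.5 nM biotinylated, FLAG-tagged JH1 (aa 826-1132), 50 nM tracer, 0.5 nM Streptavidin-Tb, pH 7.5 Tris buffer; 2 mM ATP set nonspecific background.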

[2] = target: T2, pseudo-kinase domain (JH2, amino-acids 536-812 with 3 surface mutations W659A, W777A, F794H) of human Wild Type JAK2 (Homo sapiens, UniProt O60674, F794H/W659A/W777A); experiment: JAK2 LanthaScreen JH2-WT Binding Assay; settings: JAK2 JH2-WT (0.145 nM), 50 nM Fluorescent JAK2-JH2 Tracer, 1 hour at 25° C.; read-out: JH2 BIND WT
T2 construct: pseudo-kinase domain (JH2, amino-acids 536-812 with 3 surface mutations W659A, W777A, F794H); His (C); Avi (biotinylated) (C); purchased BPS Bioscience 79463; host or cells: baculovirus expression system
T2 sequence (O60674 536-812 W659A/W777A/F794H): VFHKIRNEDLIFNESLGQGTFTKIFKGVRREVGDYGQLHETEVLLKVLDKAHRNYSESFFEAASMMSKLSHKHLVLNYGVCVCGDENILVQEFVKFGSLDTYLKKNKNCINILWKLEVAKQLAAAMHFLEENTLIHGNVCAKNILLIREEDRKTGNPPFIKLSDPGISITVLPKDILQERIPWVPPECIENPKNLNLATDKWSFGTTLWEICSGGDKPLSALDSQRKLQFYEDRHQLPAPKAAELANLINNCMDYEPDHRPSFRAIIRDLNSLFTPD
Procedure, shortened: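 Biotinylated C-terminal His-Avi-tagged JH2 (residues 536-812, baculovirus-expressed) at 0.145 nM was incubated with serially diluted compounds, 50 nM fluorescent JAK2-JH2 tracer and 0.25 nM streptavidin-Tb cryptate in pH 7.5 Tris buffer with MgCl2, Brij-35, BSA, EGTA, glycerol and DTT. LanthaScreen TR-FRET was read after 1 hour at 25° C; IC50 came from four-parameter fits.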

[3] = target: T3, pseudo-kinase domain (JH2, amino-acids 536-812 with 3 surface mutations W659A, W777A, F794H) of human V617F mutant JAK2 (Homo sapiens, UniProt O60674, F794H/V617F/W659A/W777A); experiment: JAK2 LanthaScreen JH2-V617F Binding Assay; settings: JAK2 JH2-V617F (0.26 nM), 50 nM Fluorescent JAK2-JH2 Tracer, 1 hour at 25° C.; read-out: JH2 BIND V617F
T3 construct: pseudo-kinase domain (JH2, amino-acids 536-812 with 3 surface mutations W659A, W777A, F794H); His (C); Avi (biotinylated) (C); purchased BPS Bioscience 79498; host or cells: baculovirus expression system
T3 sequence (O60674 536-812 V617F/W659A/W777A/F794H): as the sequence (O60674 536-812 W659A/W777A/F794H) above, with V82F counted along it
Procedure, shortened: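 Binding was measured as TR-FRET displacement of 50 nM tracer from 0.26 nM biotinylated His-Avi protein, incubated one hour at 25° C; IC50 from a four-parameter fit.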

| Structure (SMILES) | IC50 [1] | IC50 [2] | IC50 [3] |
| --- | --- | --- | --- |
| Cn1ncc2cc(-c3c(-c4cnn5c4CCC5)[nH]c4ncc5c(c34)n(C3CCOCC3)c(=O)n5C)ccc21 [Example 92, 7-(5,6-Dihydro-4H-pyrrolo[1,2-b]pyrazol-3-yl)-3-methyl-8-(1-methyl-1H-indazol-5-yl)-1-(tetrahydro-2H-pyran-4-yl)-3,6-dihydroimidazo[4,5-d]pyrrolo[2,3-b]pyridin-2(1H)-one] | > 1000 nM | ≤ 10 nM | ≤ 10 nM |
| Cn1ncc2cc(-c3c(C(O)C4CC4)[nH]c4ncc5c(c34)n(C3CCOCC3)c(=O)n5C)ccc21 (stereo not drawn) [Example 95, 7-(Cyclopropyl(hydroxy)methyl)-3-methyl-8-(1-methyl-1H-indazol-5-yl)-1-(tetrahydro-2H-pyran-4-yl)-3,6-dihydroimidazo[4,5-d]pyrrolo[2,3-b]pyridin-2(1H)-one] | > 1000 nM | ≤ 10 nM | 10 to 100 nM |
| CC(C)n1c(=O)n(C)c2cnc3[nH]c(Cc4ccc(C#N)cc4)c(-c4ccc5c(cnn5C)c4)c3c21 [Example 96, 4-((1-Isopropyl-3-methyl-8-(1-methyl-1H-indazol-5-yl)-2-oxo-1,2,3,6-tetrahydroimidazo [4,5-d]pyrrolo[2,3-b]pyridin-7-yl)methyl) benzonitrile] | > 1000 nM | > 1000 nM | > 1000 nM |
| CCc1[nH]c2ncc3c(c2c1-c1ccc2c(cnn2C)c1)n(C1CCCC1)c(=O)n3C [Example 97, 1-Cyclopentyl-7-ethyl-3-methyl-8-(1-methyl-1H-indazol-5-yl)-3,6-dihydroimidazo[4,5-d]pyrrolo[2,3-b]pyridin-2(1H)-one] | > 1000 nM | 10 to 100 nM | 100 to 500 nM |
| Cn1ncc2cc(-c3c(C(=O)NC4CC4)[nH]c4ncc5c(c34)n(C3CCCC3)c(=O)n5C)ccc21 [Example 98, 1-Cyclopentyl-N-cyclopropyl-3-methyl-8-(1-methyl-1H-indazol-5-yl)-2-oxo-1,2,3,6-tetrahydroimidazo [4,5-d]pyrrolo[2,3-b]pyridine-7-carboxamide] | > 1000 nM | 10 to 100 nM | 10 to 100 nM |
| Cn1ncc2cc(-c3c(S(C)(=O)=O)[nH]c4ncc5c(c34)n(C3CCCC3)c(=O)n5C)ccc21 [Example 99, 1-Cyclopentyl-3-methyl-8-(1-methyl-1H-indazol-5-yl)-7-(methylsulfonyl)-3,6-dihydroimidazo [4,5-d]pyrrolo[2,3-b] pyridin-2(1H)-one] | > 1000 nM | 500 to 1000 nM | 500 to 1000 nM |
| CC(C)n1c(=O)n(C)c2cnc3[nH]c(-c4cnn(C)c4)c(C#Cc4ccccc4)c3c21 [Example 100, 1-Isopropyl-3-methyl-7-(1-methyl-1H-pyrazol-4-yl)-8-(phenylethynyl)-3,6-dihydroimidazo[4,5-d]pyrrolo[2,3-b]pyridin-2(1H)-one] | 500 to 1000 nM | 100 to 500 nM | 100 to 500 nM |
| Cn1cc(-c2[nH]c3ncc4c(c3c2-c2ccc3c(cnn3C)c2)n([C@H]2C[C@@H](CC#N)C2)c(=O)n4C)cn1 [Example 101, 2-((1S,3S)-3-(3-Methyl-8-(1-methyl-1H-indazol-5-yl)-7-(1-methyl-1H-pyrazol-4-yl)-2-oxo-3,6-dihydroimidazo[4,5-d]pyrrolo[2,3-b]pyridin-1(2H)-yl)cyclobutyl)acetonitrile] | 100 to 500 nM | ≤ 10 nM | ≤ 10 nM |
| Cn1cc(-c2[nH]c3ncc4c(c3c2-c2ccc3c(cnn3C)c2)n([C@H]2CC[C@@H](CC#N)CC2)c(=O)n4C)cn1 [Example 102, 2-((1S,4S)-4-(3-Methyl-8-(1-methyl-1H-indazol-5-yl)-7-(1-methyl-1H-pyrazol-4-yl)-2-oxo-3,6-dihydroimidazo[4,5-d]pyrrolo[2,3-b]pyridin-1(2H)-yl)cyclohexyl)acetonitrile] | 10 to 100 nM | ≤ 10 nM | ≤ 10 nM |
| Cn1ncc2cc(-c3c(-c4cnn(CC(C)(C)O)c4)[nH]c4ncc5c(c34)n([C@H]3CC[C@@H](CC#N)CC3)c(=O)n5C)ccc21 [Example 103, 2-((1S,4S)-4-(7-(1-(2-Hydroxy-2-methylpropyl)-1H-pyrazol-4-yl)-3-methyl-8-(1-methyl-1H-indazol-5-yl)-2-oxo-3,6-dihydroimidazo[4,5-d]pyrrolo[2,3-b]pyridin-1(2H)-yl)cyclohexyl)acetonitrile] | 100 to 500 nM | ≤ 10 nM | ≤ 10 nM |
| COC(=O)N[C@H]1C[C@@H](n2c(=O)n(C)c3cnc4[nH]c(-c5cnn(C)c5)c(-c5ccc6c(cnn6C)c5)c4c32)C1 [Example 104, Methyl ((1S,3S)-3-(3-methyl-8-(1-methyl-1H-indazol-5-yl)-7-(1-methyl-1H-pyrazol-4-yl)-2-oxo-3,6-dihydroimidazo[4,5-d]pyrrolo[2,3-b]pyridin-1(2H)-yl)cyclobutyl)carbamate] | 500 to 1000 nM | ≤ 10 nM | ≤ 10 nM |
| CCOC(=O)N[C@H]1C[C@@H](n2c(=O)n(C)c3cnc4[nH]c(-c5cnn(C)c5)c(-c5ccc(C#N)cc5)c4c32)C1 [Example 105, Ethyl ((1S,3S)-3-(8-(4-cyanophenyl)-3-methyl-7-(1-methyl-1H-pyrazol-4-yl)-2-oxo-3,6-dihydroimidazo[4,5-d]pyrrolo[2,3-b]pyridin-1(2H)-yl)cyclobutyl)carbamate] | > 1000 nM | ≤ 10 nM | ≤ 10 nM |
| CCOC(=O)N[C@H]1C[C@@H](n2c(=O)n(C)c3cnc4[nH]c(-c5cnn(C)c5)c(-c5ccc(OC)cc5)c4c32)C1 [Example 106, Ethyl ((1S,3S)-3-(8-(4-methoxyphenyl)-3-methyl-7-(1-methyl-1H-pyrazol-4-yl)-2-oxo-3,6-dihydroimidazo[4,5-d]pyrrolo[2,3-b]pyridin-1(2H)-yl)cyclobutyl)carbamate] | > 1000 nM | ≤ 10 nM | ≤ 10 nM |
| CC(C)n1c(=O)n(C)c2cnc3[nH]c(-c4cnn(C)c4)c(C4CCN(C(=O)Cc5ccc(S(C)(=O)=O)cc5)CC4)c3c21 [Example 107, 1-Isopropyl-3-methyl-7-(1-methyl-1H-pyrazol-4-yl)-8-(1-(2-(4-(methylsulfonyl)phenyl)acetyl)piperidin-4-yl)-3,6-dihydroimidazo[4,5-d]pyrrolo[2,3-b]pyridin-2(1H)-one] | 100 to 500 nM | 10 to 100 nM | 10 to 100 nM |
| COc1nn(C)cc1-c1[nH]c2ncc3c(c2c1-c1ccc2c(cnn2C)c1)n([C@H]1CC[C@@H](CC#N)CC1)c(=O)n3C [Example 108, 2-((1S,4S)-4-(7-(3-methoxy-1-methyl-1H-pyrazol-4-yl)-3-methyl-8-(1-methyl-1H-indazol-5-yl)-2-oxo-3,6-dihydroimidazo[4,5-d]pyrrolo[2,3-b]pyridin-1(2H)-yl)cyclohexyl)acetonitrile] | > 1000 nM | ≤ 10 nM | ≤ 10 nM |
| [2H]C([2H])([2H])n1ncc2cc(-c3c(-c4cn(C)nc4OC)[nH]c4ncc5c(c34)n(C3CCOCC3)c(=O)n5C)ccc21 [Example 109, 7-(3-Methoxy-1-methyl-1H-pyrazol-4-yl)-3-methyl-8-(1-(methyl-d3)-1H-indazol-5-yl)-1-(tetrahydro-2H-pyran-4-yl)-3,6-dihydroimidazo[4,5-d]pyrrolo[2,3-b]pyridin-2(1H)-one] | > 1000 nM | ≤ 10 nM | ≤ 10 nM |
| [2H]C([2H])([2H])n1ncc2cc(-c3c(-c4cnn5cccnc45)[nH]c4ncc5c(c34)n(C3CCOCC3)c(=O)n5C)ccc21 [Example 110, 3-Methyl-8-(1-(methyl-d3)-1H-indazol-5-yl)-7-(pyrazolo[1,5-a]pyrimidin-3-yl)-1-(tetrahydro-2H-pyran-4-yl)-3,6-dihydroimidazo[4,5-d]pyrrolo[2,3-b]pyridin-2(1H)-one] | > 1000 nM | ≤ 10 nM | ≤ 10 nM |
| Cn1cc(-c2[nH]c3ncc4c(c3c2-c2ccc3c(cnn3C)c2)n(C2CCN(C3(CC#N)CCC3)CC2)c(=O)n4C)cn1 [Example 111, 2-(1-(4-(3-Methyl-8-(1-methyl-1H-indazol-5-yl)-7-(1-methyl-1H-pyrazol-4-yl)-2-oxo-3,6-dihydroimidazo[4,5-d]pyrrolo[2,3-b]pyridin-1(2H)-yl)piperidin-1-yl)cyclobutyl)acetonitrile] | 500 to 1000 nM | ≤ 10 nM | ≤ 10 nM |
